Where two headings read alike, the source gives them in different places.
What was measured:
SARS-CoV-2 3CLpro = SARS-CoV-2 3CLpro (Severe acute respiratory syndrome coronavirus 2, UniProt P0DTD1); experiment: biochemical
HCoV-229E 3CLpro = HCoV-229E 3CLpro (Human coronavirus 229E, UniProt P0C6X1); experiment: HCoV-229E 3CLpro inhibition assay (FRET); assay type: biochemical
MERS-CoV 3CLpro = MERS-CoV 3CLpro (Middle East respiratory syndrome-related coronavirus, UniProt K9N7C7); experiment: biochemical
Sequence of MERS-CoV 3CLpro (K9N7C7 3248-3553): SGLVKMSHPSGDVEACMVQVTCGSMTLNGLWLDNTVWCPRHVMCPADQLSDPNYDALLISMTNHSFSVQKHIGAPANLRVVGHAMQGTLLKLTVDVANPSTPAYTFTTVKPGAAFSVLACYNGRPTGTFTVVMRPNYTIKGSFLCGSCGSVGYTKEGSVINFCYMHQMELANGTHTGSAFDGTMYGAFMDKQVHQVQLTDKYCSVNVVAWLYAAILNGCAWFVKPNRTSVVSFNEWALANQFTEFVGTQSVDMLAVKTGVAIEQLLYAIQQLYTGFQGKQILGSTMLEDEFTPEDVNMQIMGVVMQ

SARS-CoV 3CLpro = SARS-CoV 3CLpro (Severe acute respiratory syndrome coronavirus, UniProt P0C6X7); experiment: biochemical

Sequence of HCoV-229E 3CLpro (P0C6X1 2966-3267): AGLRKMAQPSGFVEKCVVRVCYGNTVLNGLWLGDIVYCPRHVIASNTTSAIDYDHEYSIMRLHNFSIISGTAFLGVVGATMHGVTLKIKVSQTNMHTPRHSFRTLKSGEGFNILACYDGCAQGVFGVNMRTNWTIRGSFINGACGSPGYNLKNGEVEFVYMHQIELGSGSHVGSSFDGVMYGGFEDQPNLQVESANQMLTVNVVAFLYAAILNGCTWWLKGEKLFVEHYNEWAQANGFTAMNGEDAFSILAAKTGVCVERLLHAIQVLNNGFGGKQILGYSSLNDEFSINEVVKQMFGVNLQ

Compound CC[C@H](C)[C@H](NC(=O)C1CC1(F)F)C(=O)N1C[C@H]2[C@@H]([C@H]1C(=O)NN(C[C@@H]1CCNC1=O)C(=O)[C@H](F)Cl)C2(C)C (mixture of isomers) [Example 53, Rac-2,2-difluoro-N-[(1S,2S)-2-methyl-1-[(1R,2S,5S)-6,6-dimethyl-2-[[[(2R)-2-chloro-2-fluoro-acetyl]-[[(3S)-2-oxopyrrolidin-3-yl]methyl]amino]carbamoyl]-3-azabicyclo[3.1.0]hexane-3-carbonyl]butyl]cyclopropanecarboxamide] has an IC50 (SARS-CoV-2 3CLpro) of 8 nM, an IC50 (HCoV-229E 3CLpro) of 32 nM and an IC50 (MERS-CoV 3CLpro) of 87 nM. The IC50 (SARS-CoV 3CLpro) was 13 nM.
In the case of CC[C@H](C)[C@H](NC(=O)C(C)F)C(=O)N1C[C@H]2[C@@H]([C@H]1C(=O)NN(C[C@@H]1CCNC1=O)C(=O)[C@H](F)Cl)C2(C)C (mixture of isomers) [Example 56, Rac-2-fluoro-N-[(1S,2S)-2-methyl-1-[(1R,2S,5S)-6,6-dimethyl-2-[[[(2R)-2-chloro-2-fluoro-acetyl]-[[(3S)-2-oxopyrrolidin-3-yl]methyl]amino]carbamoyl]-3-azabicyclo[3.1.0]hexane-3-carbonyl]butyl]propanamide], the IC50 (SARS-CoV-2 3CLpro) is reported as 8 nM, the IC50 (HCoV-229E 3CLpro) is reported as 18 nM and the IC50 (MERS-CoV 3CLpro) is reported as 52 nM. The IC50 (SARS-CoV 3CLpro) was 11 nM.
CC[C@H](C)[C@H](NC(=O)C1CC1(F)F)C(=O)N1C[C@H]2[C@@H]([C@H]1C(=O)NN(C[C@@H]1CCNC1=O)C(=O)[C@@H](F)Cl)C2(C)C (mixture of isomers) [Example 111, Rac-2,2-difluoro-N-[(1S,2S)-2-methyl-1-[(1R,2S,5S)-6,6-dimethyl-2-[[[(2S)-2-chloro-2-fluoro-acetyl]-[[(3S)-2-oxopyrrolidin-3-yl]methyl]amino]carbamoyl]-3-azabicyclo[3.1.0]hexane-3-carbonyl]butyl]cyclopropanecarboxamide] showed an IC50 (SARS-CoV-2 3CLpro) of 16 nM, an IC50 (HCoV-229E 3CLpro) of 37 nM and an IC50 (MERS-CoV 3CLpro) of 96 nM. For the same compound, the IC50 (SARS-CoV 3CLpro) was 28 nM.
For CC[C@@H](C)[C@H](NC(=O)C1CC1(F)F)C(=O)N1C[C@H]2[C@@H]([C@H]1C(=O)NN(C[C@@H]1CCNC1=O)C(=O)[C@H](F)Cl)C2(C)C (mixture of isomers) [Example 113, Rac-2,2-difluoro-N-[(1S,2R)-2-methyl-1-[(1R,2S,5S)-6,6-dimethyl-2-[[[(2R)-2-chloro-2-fluoro-acetyl]-[[(3S)-2-oxopyrrolidin-3-yl]methyl]amino]carbamoyl]-3-azabicyclo[3.1.0]hexane-3-carbonyl]butyl]cyclopropanecarboxamide], the IC50 (SARS-CoV-2 3CLpro) was 10 nM, the IC50 (HCoV-229E 3CLpro) was 23 nM and the IC50 (MERS-CoV 3CLpro) was 79 nM. The IC50 (SARS-CoV 3CLpro) was 15 nM.
Work on CC[C@@H](C)[C@H](NC(=O)C1CC1(F)F)C(=O)N1C[C@H]2[C@@H]([C@H]1C(=O)NN(C[C@@H]1CCNC1=O)C(=O)[C@@H](F)Cl)C2(C)C (mixture of isomers) [Example 124, Rac-2,2-difluoro-N-[(1S,2R)-2-methyl-1-[(1R,2S,5S)-6,6-dimethyl-2-[[[(2S)-2-chloro-2-fluoro-acetyl]-[[(3S)-2-oxopyrrolidin-3-yl]methyl]amino]carbamoyl]-3-azabicyclo[3.1.0]hexane-3-carbonyl]butyl]cyclopropanecarboxamide] yielded an IC50 (SARS-CoV-2 3CLpro) of 26 nM, an IC50 (HCoV-229E 3CLpro) of 41 nM and an IC50 (MERS-CoV 3CLpro) of 115 nM. For the same compound, the IC50 (SARS-CoV 3CLpro) was 45 nM.
CCC(CC)[C@H](NC(=O)C(C)F)C(=O)N1CC(C)(C)C[C@H]1C(=O)NN(C[C@@H]1CCNC1=O)C(=O)[C@H](F)Cl (mixture of isomers) [Example 137, Rac-2-fluoro-N-[(1S)-2-ethyl-1-[(2S)-4,4-dimethyl-2-[[[(2R)-2-chloro-2-fluoro-acetyl]-[[(3S)-2-oxopyrrolidin-3-yl]methyl]amino]carbamoyl]pyrrolidine-1-carbonyl]butyl]propanamide] was tested, and the IC50 (SARS-CoV-2 3CLpro) was 18 nM, the IC50 (HCoV-229E 3CLpro) was 46 nM and the IC50 (MERS-CoV 3CLpro) was 192 nM. The IC50 (SARS-CoV 3CLpro) was 27 nM.
With CCC(C)(C)[C@H](NC(=O)C(C)F)C(=O)N1C[C@H]2[C@@H]([C@H]1C(=O)NN(C[C@@H]1CCNC1=O)C(=O)[C@@H](F)Cl)C2(C)C (mixture of isomers) [Example 146, Rac-2-fluoro-N-[(1S)-2,2-dimethyl-1-[(1R,2S,5S)-6,6-dimethyl-2-[[[(2S)-2-chloro-2-fluoro-acetyl]-[[(3S)-2-oxopyrrolidin-3-yl]methyl]amino]carbamoyl]-3-azabicyclo[3.1.0]hexane-3-carbonyl]butyl]propanamide] the IC50 (SARS-CoV-2 3CLpro) was 16 nM, the IC50 (HCoV-229E 3CLpro) was 69 nM and the IC50 (MERS-CoV 3CLpro) was 151 nM. For the same compound, the IC50 (SARS-CoV 3CLpro) was 23 nM.
CC(C)(C)[C@H](NC(=O)C(F)(F)F)C(=O)N1C[C@H]2[C@@H]([C@H]1C(=O)NN(C[C@H]1CCCNC1=O)C(=O)[C@H](F)Cl)C2(C)C (single isomer, unassigned) [Example 163a] was tested, and the IC50 (SARS-CoV-2 3CLpro) was 9 nM, the IC50 (HCoV-229E 3CLpro) was 52 nM and the IC50 (MERS-CoV 3CLpro) was 226 nM. It also gave an IC50 (SARS-CoV 3CLpro) of 18 nM.
For CC(C)(C)[C@H](NC(=O)C(F)(F)F)C(=O)N1C[C@H]2[C@@H]([C@H]1C(=O)NN(C[C@@H]1CCCNC1=O)C(=O)[C@H](F)Cl)C2(C)C (single isomer, unassigned) [Example 163b], the IC50 (SARS-CoV-2 3CLpro) was 17 nM, the IC50 (HCoV-229E 3CLpro) was 104 nM and the IC50 (MERS-CoV 3CLpro) was 469 nM. The IC50 (SARS-CoV 3CLpro) was 33 nM.
With CC[C@H](C)[C@H](NC(=O)C(F)(F)F)C(=O)N1C[C@H]2[C@@H]([C@H]1C(=O)NN(C[C@@H]1CCCNC1=O)C(=O)[C@H](F)Cl)C2(C)C (single isomer, unassigned) [Example 165a] the IC50 (SARS-CoV-2 3CLpro) was 11 nM, the IC50 (HCoV-229E 3CLpro) was 38 nM and the IC50 (MERS-CoV 3CLpro) was 185 nM. For the same compound, the IC50 (SARS-CoV 3CLpro) was 12 nM.
Compound CC[C@H](C)[C@H](NC(=O)C(F)(F)F)C(=O)N1C[C@H]2[C@@H]([C@H]1C(=O)NN(C[C@H]1CCCNC1=O)C(=O)[C@H](F)Cl)C2(C)C (single isomer, unassigned) [Example 165b] has an IC50 (SARS-CoV-2 3CLpro) of 20 nM, an IC50 (HCoV-229E 3CLpro) of 57 nM and an IC50 (MERS-CoV 3CLpro) of 291 nM. The IC50 (SARS-CoV 3CLpro) was 36 nM.
In the case of CCC(C)[C@H](NC(=O)C1(F)CCC1)C(=O)N1C[C@@H]2CCC[C@@H]2[C@H]1C(=O)NN(C[C@@H]1CCNC1=O)C(=O)[C@H](F)Cl (stereo in doubt) [Example 125, N-[(1S,2S)-1-[(3S,3aS,6aR)-3-[[[(2R)-2-chloro-2-fluoro-acetyl]-[[(3S)-2-oxopyrrolidin-3-yl]methyl]amino]carbamoyl]-3,3a,4,5,6,6a-hexahydro-1H-cyclopenta[c]pyrrole-2-carbonyl]-2-methyl-butyl]-1-fluoro-cyclobutanecarboxamide], the IC50 (SARS-CoV-2 3CLpro) is reported as 10 nM, the IC50 (HCoV-229E 3CLpro) is reported as 42 nM and the IC50 (MERS-CoV 3CLpro) is reported as 114 nM. It also gave an IC50 (SARS-CoV 3CLpro) of 12 nM.
CC(C)(C)[C@H](NC(=O)C(F)(F)F)C(=O)N1C[C@H]2[C@@H]([C@H]1C(=O)NN(C[C@@H]1CCNC1=O)C(=O)[C@H](F)Cl)C2(C)C [Example 1, N-[(1S)-1-[(1R,2S,5S)-2-[[[(2R)-2-chloro-2-fluoro-acetyl]-[[(3S)-2-oxopyrrolidin-3-yl]methyl]amino]carbamoyl]-6,6-dimethyl-3-azabicyclo[3.1.0]hexane-3-carbonyl]-2,2-dimethyl-propyl]-2,2,2-trifluoro-acetamide] showed an IC50 (SARS-CoV-2 3CLpro) of 10 nM, an IC50 (HCoV-229E 3CLpro) of 35 nM and an IC50 (MERS-CoV 3CLpro) of 115 nM. It also gave an IC50 (SARS-CoV 3CLpro) of 15 nM.
Compound CC1(C)[C@@H]2[C@@H](C(=O)NN(C[C@@H]3CCNC3=O)C(=O)[C@H](F)Cl)N(C(=O)[C@@H](NC(=O)C(F)(F)F)C3CC3)C[C@@H]21 [Example 2, N-[(1S)-2-[(1R,2S,5S)-2-[[[(2R)-2-chloro-2-fluoro-acetyl]-[[(3S)-2-oxopyrrolidin-3-yl]methyl]amino]carbamoyl]-6,6-dimethyl-3-azabicyclo[3.1.0]hexan-3-yl]-1-cyclopropyl-2-oxo-ethyl]-2,2,2-trifluoro-acetamide] has an IC50 (SARS-CoV-2 3CLpro) of 19 nM, an IC50 (HCoV-229E 3CLpro) of 41 nM and an IC50 (MERS-CoV 3CLpro) of 177 nM. It also gave an IC50 (SARS-CoV 3CLpro) of 30 nM.
CC(C)C[C@H](NC(=O)C(F)(F)F)C(=O)N1C[C@H]2[C@@H]([C@H]1C(=O)NN(C[C@@H]1CCNC1=O)C(=O)[C@H](F)Cl)C2(C)C [Example 3, N-[(1S)-1-[(1R,2S,5S)-2-[[[(2R)-2-chloro-2-fluoro-acetyl]-[[(3S)-2-oxopyrrolidin-3-yl]methyl]amino]carbamoyl]-6,6-dimethyl-3-azabicyclo[3.1.0]hexane-3-carbonyl]-3-methyl-butyl]-2,2,2-trifluoro-acetamide] gave an IC50 (SARS-CoV-2 3CLpro) of 14 nM, an IC50 (HCoV-229E 3CLpro) of 38 nM and an IC50 (MERS-CoV 3CLpro) of 174 nM. For the same compound, the IC50 (SARS-CoV 3CLpro) was 20 nM.
Work on CC(C)(C)[C@H](NC(=O)C(F)(F)F)C(=O)N1C[C@@H]2CCC[C@@H]2[C@H]1C(=O)NN(C[C@@H]1CCNC1=O)C(=O)[C@H](F)Cl [Example 4, N-[(1S)-1-[(3S,3aS,6aR)-3-[[[(2R)-2-chloro-2-fluoro-acetyl]-[[(3S)-2-oxopyrrolidin-3-yl]methyl]amino]carbamoyl]-3,3a,4,5,6,6a-hexahydro-1H-cyclopenta[c]pyrrole-2-carbonyl]-2,2-dimethyl-propyl]-2,2,2-trifluoro-acetamide] yielded an IC50 (SARS-CoV-2 3CLpro; read-out: IC50 in SARS-CoV-2 3CLpro assay) of 6 nM, an IC50 (HCoV-229E 3CLpro) of 39 nM and an IC50 (MERS-CoV 3CLpro) of 70 nM. It also gave an IC50 (SARS-CoV 3CLpro) of 16 nM.
With CC(C)(C)[C@H](NC(=O)C(F)(F)F)C(=O)N1C[C@@H]2CC[C@@H]2[C@H]1C(=O)NN(C[C@@H]1CCNC1=O)C(=O)[C@H](F)Cl [Example 5, N-[(1S)-1-[(1S,2S,5R)-2-[[[(2R)-2-chloro-2-fluoro-acetyl]-[[(3S)-2-oxopyrrolidin-3-yl]methyl]amino]carbamoyl]-3-azabicyclo[3.2.0]heptane-3-carbonyl]-2,2-dimethyl-propyl]-2,2,2-trifluoro-acetamide] the IC50 (SARS-CoV-2 3CLpro) was 10 nM, the IC50 (HCoV-229E 3CLpro) was 104 nM and the IC50 (MERS-CoV 3CLpro) was 303 nM. For the same compound, the IC50 (SARS-CoV 3CLpro) was 19 nM.
C[C@@H]1C[C@@H](C(=O)NN(C[C@@H]2CCNC2=O)C(=O)[C@H](F)Cl)N(C(=O)[C@@H](NC(=O)C(F)(F)F)C(C)(C)C)C1 [Example 7, N-[(1S)-1-[(2S,4R)-2-[[[(2R)-2-chloro-2-fluoro-acetyl]-[[(3S)-2-oxopyrrolidin-3-yl]methyl]amino]carbamoyl]-4-methyl-pyrrolidine-1-carbonyl]-2,2-dimethyl-propyl]-2,2,2-trifluoro-acetamide] showed an IC50 (SARS-CoV-2 3CLpro) of 8 nM, an IC50 (HCoV-229E 3CLpro) of 193 nM and an IC50 (MERS-CoV 3CLpro) of 379 nM. For the same compound, the IC50 (SARS-CoV 3CLpro) was 17 nM.
